# Like-named read-outs stand apart in the source and are kept apart here.
# Assays:
# [1] = test system: human breast cancer MDA-MB-231 cells [人乳腺癌MDA-MB-231细胞]; experiment: CCK-8 in vitro tumour cell inhibition assay, MDA-MB-231 (Example 11, Tables 2-4); format: cell-based
# [2] = test system: skin cancer A431 cells, colon cancer HCT116 cells, gastric cancer MKN45 cells, ovarian cancer SKOV-3 cells [皮肤癌A431细胞、结肠癌HCT116细胞、胃癌MKN45细胞、卵巢癌SKOV-3细胞]; experiment: CCK-8 in vitro tumour cell inhibition assay (Example 10, Table 1); format: cell-based; conditions: A431, HCT116, MKN45, SKOV-3 cells; statement on Table 1 (IC50)
IC50 ([1]; 48h) [nM],IC50 ([1]; 72h) [nM],Structure (SMILES),"inhibition at 5 µM ([1]; 48h, read-out: inhibition rate) [%]","inhibition at 5 µM ([1]; 72h, read-out: inhibition rate) [%]","inhibition at 50 µM ([1]; 24h, read-out: inhibition rate) [%]","inhibition at 50 µM ([1]; 48h, read-out: inhibition rate) [%]","inhibition at 50 µM ([1]; 72h, read-out: inhibition rate) [%]",also measured
,,"Cn1nc(-c2ccccc2)nc1N1C(=O)COC12C=CC(=O)C=C2 [LHDYX-2, 4-(1-甲基-3-苯基-1H-1,2,4-三氮唑-5-基)-1-氧-4-氮螺[4.5]癸-6,9-二烯-3,8-二酮]",94.7,96.2,100,93.5,96.4,"inhibition at 0.05 µM ([1]; 24h, read-out: inhibition rate): 19.1%; inhibition at 0.05 µM ([1]; 48h, read-out: inhibition rate): 19%; inhibition at 0.05 µM ([1]; 72h, read-out: inhibition rate): 39.4%; inhibition at 0.5 µM ([1]; 24h, read-out: inhibition rate): 17.1%; inhibition at 0.5 µM ([1]; 48h, read-out: inhibition rate): 76.4%; inhibition at 0.5 µM ([1]; 72h, read-out: inhibition rate): 95.3%; inhibition at 5 µM ([1]; 24h, read-out: inhibition rate): 39.9%"
,,"COC1=CC(=O)C=CC12OCC(=O)N2c1nc(-c2ccccc2)nn1-c1ccccc1 (stereo not shown) [LHDYX-4, 4-(1,3-二苯基-1H-1,2,4-三氮唑-5-基)-6-甲氧基-1-氧-4-氮螺[4.5]癸-6,9-二烯-3,8-二酮]",4.3,17.2,42,98.4,100,"inhibition at 5 µM ([1]; 24h, read-out: inhibition rate (class symbol)): < 0%"
2880,340,"O=C1C=CC2(C=C1)OCC(=O)N2c1nc(-c2ccccc2)nn1-c1ccccc1 [LHDYX-1, 4-(1,3-二苯基-1H-1,2,4-三氮唑-5-基)-1-氧-4-氮螺[4.5]癸-6,9-二烯-3,8-二酮]",,,,,,IC50 ([1]; 24h): 26000 nM; inhibition of cancer cells compared with doxorubicin [2]: 对癌细胞的抑制作用高于目前临床中已广泛使用抗肿瘤药物阿霉素(Doxorubicin); inhibitory activity on cancer cells [2]: 不同程度的抑制活性
2960,1460,"Cn1nc(N2C(=O)COC23C=CC(=O)C=C3)nc1-c1ccccc1 [LHDYX-3, 4-(1-甲基-5-苯基-1H-1,2,4-三氮唑-3-基)-1-氧-4-氮螺[4.5]癸-6,9-二烯-3,8-二酮]",,,,,,

# From patent CN102850337A, “多氮唑联螺烯酮类化合物及其制备方法和用途” (Sichuan University, priority 2011, dated 2013)
